This passage reports IC50 results from patent publication US20210300940A1 (Merck Patent GmbH, priority 2018, published 2021).

For assay [1], the target named is T1, TLR7 (Homo sapiens, UniProt Q9NYK1).
T1 construct: expressed in transfected cells; host or cells: HEK/293 cells carrying TLR7 and an NF-kB luciferase reporter
T1 sequence (Q9NYK1 27-1049): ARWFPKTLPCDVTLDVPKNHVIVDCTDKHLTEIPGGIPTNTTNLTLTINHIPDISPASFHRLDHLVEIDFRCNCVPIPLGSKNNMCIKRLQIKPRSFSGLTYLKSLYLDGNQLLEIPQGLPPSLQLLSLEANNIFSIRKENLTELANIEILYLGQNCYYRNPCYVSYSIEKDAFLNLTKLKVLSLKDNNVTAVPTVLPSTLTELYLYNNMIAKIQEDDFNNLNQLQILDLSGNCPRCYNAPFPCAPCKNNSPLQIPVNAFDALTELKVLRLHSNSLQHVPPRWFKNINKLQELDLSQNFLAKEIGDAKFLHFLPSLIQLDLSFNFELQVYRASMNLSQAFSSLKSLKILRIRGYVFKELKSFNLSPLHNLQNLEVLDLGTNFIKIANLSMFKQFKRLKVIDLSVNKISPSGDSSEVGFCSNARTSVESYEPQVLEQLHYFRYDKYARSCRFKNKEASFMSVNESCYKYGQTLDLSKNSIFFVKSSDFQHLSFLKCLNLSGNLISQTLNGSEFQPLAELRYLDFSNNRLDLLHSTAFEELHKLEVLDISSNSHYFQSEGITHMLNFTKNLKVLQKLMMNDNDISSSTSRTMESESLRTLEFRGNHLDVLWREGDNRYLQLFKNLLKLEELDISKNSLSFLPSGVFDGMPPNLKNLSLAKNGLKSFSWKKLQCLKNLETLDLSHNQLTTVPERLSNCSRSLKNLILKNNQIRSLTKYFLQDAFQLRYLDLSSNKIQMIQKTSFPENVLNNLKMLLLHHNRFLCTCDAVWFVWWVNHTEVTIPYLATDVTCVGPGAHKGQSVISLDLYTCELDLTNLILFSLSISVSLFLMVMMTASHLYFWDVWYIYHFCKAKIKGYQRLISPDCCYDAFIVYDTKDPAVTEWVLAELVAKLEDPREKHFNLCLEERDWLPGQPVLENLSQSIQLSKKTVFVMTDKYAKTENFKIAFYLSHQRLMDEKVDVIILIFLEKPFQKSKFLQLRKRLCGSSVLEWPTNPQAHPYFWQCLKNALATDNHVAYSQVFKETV
The assay is described as follows: HEK/293 TLR7 Cell Assay. The format is cell-based. The following applies: TLR7/NFKb HEK cells, R848 agonist 10 uM final concentration, Steady-Glo readout; read-out: TLR7 potency. In outline: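 Compounds added to HEK cells expressing TLR7 with an NFκB reporter 30 min ahead of 10 uM R848 challenge; luciferase signal (Steady-Glo) measured after 5 h, cells having been seeded 24 h earlier at 5000 per well.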

Assay [2] concerns the target T2, TLR8 (Homo sapiens, UniProt Q9NR97).
T2 construct: expressed in transfected cells; host or cells: HEK/293 reporter cells (NF-kB luciferase)
T2 sequence (Q9NR97 27-1041): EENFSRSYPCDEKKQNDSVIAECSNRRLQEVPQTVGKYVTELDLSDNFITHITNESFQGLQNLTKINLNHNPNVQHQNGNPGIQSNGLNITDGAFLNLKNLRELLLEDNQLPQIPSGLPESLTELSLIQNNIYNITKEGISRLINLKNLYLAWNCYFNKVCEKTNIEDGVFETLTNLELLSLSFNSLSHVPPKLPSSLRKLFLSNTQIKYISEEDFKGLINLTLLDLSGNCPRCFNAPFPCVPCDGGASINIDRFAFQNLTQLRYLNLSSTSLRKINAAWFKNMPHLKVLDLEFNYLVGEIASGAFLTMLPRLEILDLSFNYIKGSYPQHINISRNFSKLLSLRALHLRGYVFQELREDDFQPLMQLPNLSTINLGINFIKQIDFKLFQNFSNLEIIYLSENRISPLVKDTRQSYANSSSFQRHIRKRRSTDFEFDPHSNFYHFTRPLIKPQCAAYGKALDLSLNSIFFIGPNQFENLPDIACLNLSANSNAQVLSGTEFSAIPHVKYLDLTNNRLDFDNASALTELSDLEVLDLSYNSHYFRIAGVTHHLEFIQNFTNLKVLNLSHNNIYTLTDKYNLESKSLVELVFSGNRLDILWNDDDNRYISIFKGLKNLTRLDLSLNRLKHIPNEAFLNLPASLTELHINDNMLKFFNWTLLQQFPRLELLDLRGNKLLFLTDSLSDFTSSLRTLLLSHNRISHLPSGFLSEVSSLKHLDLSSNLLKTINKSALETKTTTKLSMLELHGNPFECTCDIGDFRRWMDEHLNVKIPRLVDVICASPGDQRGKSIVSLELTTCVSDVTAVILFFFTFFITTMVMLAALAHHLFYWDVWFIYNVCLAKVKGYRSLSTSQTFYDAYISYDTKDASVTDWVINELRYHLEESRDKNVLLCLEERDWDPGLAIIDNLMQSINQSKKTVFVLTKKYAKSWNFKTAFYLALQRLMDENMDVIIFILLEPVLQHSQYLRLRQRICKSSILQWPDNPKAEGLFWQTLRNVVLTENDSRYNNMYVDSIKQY
The assay is described as follows: HEK/293 TLR8 Cell Assay. The format is cell-based. The following applies: HEK cells, R848 agonist 30 uM final concentration, Steady-Glo readout; read-out: TLR8 potency.

For the molecule `Cc1ncc(N2C[C@@H](C)C[C@@H](NC(=O)CC3(N)CC3)C2)c2cccnc12` [Example 121, 2-(1-aminocyclopropyl)-N-[(3R,5S)-5-methyl-1-(8-methyl-1,7-naphthyridin-5-yl)piperidin-3-yl]acetamide], the IC50 in assay [1] was 0.075 to 0.15 µM; in assay [2], under 0.075 µM.
On the same counts, the results for `C[C@H]1C[C@@H](NC(=O)[C@@H](N)C(C)(C)O)CN(c2ccc(C#N)c3nccnc23)C1` [Example 173, (S)-2-Amino-N-[(3R,5S)-1-(8-cyano-quinoxalin-5-yl)-5-methyl-piperidin-3-yl]-3-hydroxy-3-methyl-butyramide] are under 0.075 µM and under 0.075 µM.
On the same counts, the results for `N#Cc1ccc(N2C[C@@H](C(F)(F)F)O[C@@H](C(=O)NC[C@]3(F)CCNC3)C2)c2cccnc12` (single isomer, unassigned) [Example 314] are over 0.15 µM and over 0.15 µM.
On the same counts, the results for `C[C@H]1C[C@@H](NC(=O)CCN2CCOCC2)CN(c2ccc(C#N)c3nccnc23)C1` [Example 194, N-[(3R,5S)-1-(8-Cyano-quinoxalin-5-yl)-5-methyl-piperidin-3-yl]-3-morpholin-4-yl-propionamide] are 0.075 to 0.15 µM and under 0.075 µM.
Consider `C[C@@H]1CN(c2cnc(C#N)c3ncccc23)C[C@H](CN2CCNC(=O)C2)O1` [Example 379, 5-[(2R,6S)-2-Methyl-6-(3-oxo-piperazin-1-ylmethyl)-morpholin-4-yl]-naphthyridine-8-carbonitrile], for which the IC50 in assay [1] and in assay [2] was over 0.15 µM in each case.
Regarding `C[C@H]1C[C@@H](NC(=O)CCN(C)C)CN(c2ccc(C#N)c3nccnc23)C1` [Example 79], the IC50 in assay [1] and in assay [2] was under 0.075 µM throughout.
`CC(C(=O)N[C@@H]1C[C@H](C(F)(F)F)CN(c2ccc(C(F)(F)F)c3ncccc23)C1)N1CCN(C)CC1` (single isomer, unassigned) [Example 94]: the IC50 in assay [1] was 0.075 to 0.15 µM; in assay [2], under 0.075 µM.
On the same counts, the results for `C[C@H]1C[C@@H](NC(=O)CCC2CCN(C)CC2)CN(c2ccc(C#N)c3ncncc23)C1` [Example 191, N-[(3R,5S)-1-(8-Cyano-quinazolin-5-yl)-5-methyl-piperidin-3-yl]-3-(1-methyl-piperidin-4-yl)-propionamide] are 0.075 to 0.15 µM and 0.075 to 0.15 µM.
Turning to `C[C@@H]1CN(c2ccc(C#N)c3nccnc23)C[C@H](C(=O)NCC2CN(C)CCO2)O1` (stereo partly drawn) [Example 240, (2R,6R)-4-(8-Cyano-quinoxalin-5-yl)-6-methyl-morpholine-2-carboxylic acid (4-methyl-morpholin-2-ylmethyl)-amide], the IC50 in assay [1] and in assay [2] was under 0.075 µM throughout.
For `C[C@H]1C[C@@H](NCC2CCC(=O)N2)CN(c2ccc(C(F)(F)F)c3nccnc23)C1` (stereo partly drawn) [Example 28, 5-{[(3R,5S)-5-Methyl-1-(8-trifluoromethyl-quinoxalin-5-yl)-piperidin-3-ylamino]-methyl}-pyrrolidin-2-one], the IC50 in assay [1] and in assay [2] was under 0.075 µM each time.
`C[C@H](O)CNC(=O)[C@@H]1CN(c2ccc(C#N)c3nccnc23)C[C@H](C(F)(F)F)O1` (single isomer, unassigned) [Example 287]: the IC50 in assay [1] and in assay [2] was 0.075 to 0.15 µM each time.
On to `C[C@@H]1CN(c2ccc(C#N)c3ncncc23)C[C@H](C(=O)NC[C@H]2CN(C)CCO2)O1` [Example 267, (2R,6R)-4-(8-Cyano-quinazolin-5-yl)-6-methyl-morpholine-2-carboxylic acid ((S)-4-methyl-morpholin-2-ylmethyl)-amide], for which the IC50 in assay [1] and in assay [2] was under 0.075 µM each time.
Regarding `N#Cc1ccc(N2C[C@@H](CN3CCC4(CC3)CC(=O)N4)O[C@@H](C(F)(F)F)C2)c2nccnc12` (single isomer, unassigned) [Example 364], the IC50 in assay [1] is under 0.075 µM; in assay [2], over 0.15 µM.
On the same counts, the results for `CCN1CCN(C[C@H]2CN(c3cnc(C#N)c4ncccc34)C[C@@H](C)O2)CC1` [Example 371, 5-[(2S,6R)-2-(4-Ethyl-piperazin-1-ylmethyl)-6-methyl-morpholin-4-yl]-naphthyridine-8-carbonitrile] are over 0.15 µM and under 0.075 µM.
`CN1CC[C@@](F)(CNC(=O)[C@H]2CN(c3ccc(C#N)c4nccnc34)C[C@@H](C(F)(F)F)O2)C1` (single isomer, unassigned) [Example 355]: the IC50 in assay [1] and in assay [2] was under 0.075 µM throughout.
Take `C[C@@H]1CN(c2ccc(C#N)c3nccnc23)C[C@H](C(=O)NC[C@H]2CN(C)CCO2)O1` (single isomer, unassigned) [Example 324]: the IC50 in assay [1] and in assay [2] was under 0.075 µM throughout.
`C[C@H]1C[C@@H](NS(=O)(=O)NC2CCN(C)CC2)CN(c2ccc(C(F)(F)F)c3ncccc23)C1` [Example 200, N-(1-methylpiperidin-4-yl){[(3R,5S)-5-methyl-1-[8-(trifluoromethyl)quinolin-5-yl]piperidin-3-yl]amino}sulfonamide]: the IC50 in assay [1] and in assay [2] was under 0.075 µM each time.
As to `CN1CC[C@@](F)(CNC(=O)[C@@H]2CN(c3cnc(C#N)c4ncccc34)C[C@H](C(F)(F)F)O2)C1` (single isomer, unassigned) [Example 349], the IC50 in assay [1] and in assay [2] was 0.075 to 0.15 µM throughout.
For `N#Cc1ccc(N2C[C@H](NC(=O)CO)C[C@H](C(F)(F)F)C2)c2cccnc12` [Example 62, N-[(3R,5S)-1-(8-Cyano-quinolin-5-yl)-5-trifluoromethyl-piperidin-3-yl]-2-hydroxy-acetamide], the IC50 in assay [1] and in assay [2] was over 0.15 µM in each case.
In the case of `N#Cc1ccc(N2C[C@H](NC(=O)CC3CCNCC3F)C[C@H](C(F)(F)F)C2)c2cccnc12` (stereo partly drawn) [Example 138, N-[(3R,5S)-1-(8-Cyano-quinolin-5-yl)-5-trifluoromethyl-piperidin-3-yl]-2-(3-fluoro-piperidin-4-yl)-acetamide], the IC50 in assay [1] and in assay [2] was under 0.075 µM each time.
As for `C[C@H]1C[C@@H](NC(=O)[C@@H](O)C(C)(C)O)CN(c2ccc(C#N)c3nccnc23)C1` [Example 161, (S)—N-[(3R,5S)-1-(8-Cyano-quinoxalin-5-yl)-5-methyl-piperidin-3-yl]-2,3-dihydroxy-3-methyl-butyramide], the IC50 in assay [1] and in assay [2] was under 0.075 µM throughout.
Consider `Cc1ccc(N2C[C@H](NC(=O)CC3(O)CCN(C)CC3)C[C@H](C(F)(F)F)C2)c2cccnc12` [Example 87, 2-(4-hydroxy-1-methylpiperidin-4-yl)-N-[(3R,5S)-1-(8-methylquinolin-5-yl)-5-(trifluoromethyl)piperidin-3-yl]acetamide], for which the IC50 in assay [1] and in assay [2] was under 0.075 µM each time.
